Reference: ChEMBL document CHEMBL3885861, “Open TG-GATES”

Organism: Rattus norvegicus
Assay: Open TG-GATES - Regimen: Single
Type: toxicity, organism-based, Sprague-Dawley
Design: regimen Single, gender Male, age 6 weeks
Settings: in vivo, po, 50 mg/kg, route gavage, dose level Middle; for APTT / Bas / Eos / Fbg / Hb / Ht / Lym / MCHC / MCV / Mono / Neu / PT / Plat / RBC / Ret / WBC: tissue Blood; for KIDNEY_L / KIDNEY_R / KIDNEY_TOTAL: tissue Kidney; for LIVER: tissue Liver; for ALP / ALT / AST / BUN / CRE / Ca / Cl / DBIL / GLC / IP / K / LDH / Na / PL / RALB / TBIL / TC / TG / TP / gamma-GTP: tissue Plasma

## C1CCC(C(CC2CCCCN2)C2CCCCC2)CC1 (centres undefined) [PERHEXILINE]
3 h
  TERMINAL_BW: 207.9 g
  APTT: 22 s
  Bas: 0%
  Eos: 0.8%
  Fbg: 319.8 mg/dL
  Hb: 13.6 g/dL
  Ht: 40.9%
  Lym: 77.6%
  MCHC: 33.3%
  MCV: 62.5 fL
  Mono: 1.8%
  Neu: 19%
  PT: 15.7 s
  Plat: 132.9 x10_4/uL
  RBC: 656 x10_4/ul
  Ret: 6.5%
  WBC: 52.6 x10_2/uL
  KIDNEY_L: 1 g
  KIDNEY_R: 1 g
  KIDNEY_TOTAL: 2 g
  LIVER: 9.4 g
  ALP: 1767.8 IU/L
  ALT: 47.4 IU/L
  AST: 72 IU/L
  BUN: 10.8 mg/dL
  CRE: 0.1 mg/dL
  Ca: 10.8 mg/dL
  Cl: 105 meq/L
  DBIL: 0.004 mg/dL
  GLC: 164.6 mg/dL
  IP: 9.2 mg/dL
  K: 4 meq/L
  LDH: 190.6 IU/L
  Na: 140.4 meq/L
  PL: 140.2 mg/dL
  RALB: 3.1 g/dL
  TBIL: 0.012 mg/dL
  TC: 73 mg/dL
  TG: 65.8 mg/dL
  TP: 5.7 g/dL
  gamma-GTP: 0.8 IU/L
6 h
  TERMINAL_BW: 216.9 g
  APTT: 21.5 s
  Bas: 0%
  Eos: 1%
  Fbg: 325.6 mg/dL
  Hb: 13 g/dL
  Ht: 38.7%
  Lym: 72.8%
  MCHC: 33.5%
  MCV: 62.6 fL
  Mono: 2.8%
  Neu: 22.2%
  PT: 15.7 s
  Plat: 126.8 x10_4/uL
  RBC: 619.8 x10_4/ul
  Ret: 7.7%
  WBC: 94.8 x10_2/uL
  KIDNEY_L: 1.1 g
  KIDNEY_R: 1 g
  KIDNEY_TOTAL: 2.1 g
  LIVER: 9.5 g
  ALP: 1607.2 IU/L
  ALT: 40.4 IU/L
  AST: 69.8 IU/L
  BUN: 11.4 mg/dL
  CRE: 0.2 mg/dL
  Ca: 10.9 mg/dL
  Cl: 105.2 meq/L
  DBIL: 0.006 mg/dL
  GLC: 161 mg/dL
  IP: 10.1 mg/dL
  K: 4.5 meq/L
  LDH: 182.6 IU/L
  Na: 139 meq/L
  PL: 137.8 mg/dL
  RALB: 3 g/dL
  TBIL: 0.014 mg/dL
  TC: 69.2 mg/dL
  TG: 81.6 mg/dL
  TP: 5.6 g/dL
  gamma-GTP: 1 IU/L
9 h
  TERMINAL_BW: 203.5 g
  APTT: 21 s
  Bas: 0%
  Eos: 0.6%
  Fbg: 325.2 mg/dL
  Hb: 13.1 g/dL
  Ht: 39.1%
  Lym: 76.2%
  MCHC: 33.6%
  MCV: 63.4 fL
  Mono: 1.8%
  Neu: 20.2%
  PT: 15.5 s
  Plat: 130 x10_4/uL
  RBC: 617.6 x10_4/ul
  Ret: 7.4%
  WBC: 69.7 x10_2/uL
  KIDNEY_L: 1 g
  KIDNEY_R: 1 g
  KIDNEY_TOTAL: 1.9 g
  LIVER: 8.5 g
  ALP: 1598.6 IU/L
  ALT: 40.2 IU/L
  AST: 69 IU/L
  BUN: 11 mg/dL
  CRE: 0.1 mg/dL
  Ca: 10.8 mg/dL
  Cl: 105.4 meq/L
  DBIL: 0.002 mg/dL
  GLC: 169.8 mg/dL
  IP: 9.9 mg/dL
  K: 4.1 meq/L
  LDH: 238.2 IU/L
  Na: 139.2 meq/L
  PL: 137 mg/dL
  RALB: 3 g/dL
  TBIL: 0.018 mg/dL
  TC: 78.6 mg/dL
  TG: 39.4 mg/dL
  TP: 5.6 g/dL
  gamma-GTP: 1 IU/L
24 h
  TERMINAL_BW: 220 g
  APTT: 20.4 s
  Bas: 0%
  Eos: 1%
  Fbg: 309.4 mg/dL
  Hb: 13.5 g/dL
  Ht: 40.3%
  Lym: 82%
  MCHC: 33.4%
  MCV: 63.4 fL
  Mono: 2%
  Neu: 14%
  PT: 15.6 s
  Plat: 116.9 x10_4/uL
  RBC: 635.4 x10_4/ul
  Ret: 6.5%
  WBC: 92.8 x10_2/uL
  KIDNEY_L: 0.9 g
  KIDNEY_R: 1 g
  KIDNEY_TOTAL: 1.9 g
  LIVER: 10.2 g
  ALP: 1673.6 IU/L
  ALT: 43.2 IU/L
  AST: 72.8 IU/L
  BUN: 15.4 mg/dL
  CRE: 0.2 mg/dL
  Ca: 10.7 mg/dL
  Cl: 108 meq/L
  DBIL: 0 mg/dL
  GLC: 179.8 mg/dL
  IP: 7.4 mg/dL
  K: 4.4 meq/L
  LDH: 240.6 IU/L
  Na: 143.4 meq/L
  PL: 146.4 mg/dL
  RALB: 3.2 g/dL
  TBIL: 0.01 mg/dL
  TC: 72 mg/dL
  TG: 117.2 mg/dL
  TP: 5.6 g/dL
  gamma-GTP: 1 IU/L
